In patent US20260345729A1, “TISSUE DIFFERENTIATION FACTOR RELATED POLYPEPTIDES (TDFRPS) FOR THE TREATMENT OF MYOCARDIAL INJURY” (Therapeutics By Design, LLC, priority 2022, published 2026):
Where “and” joins values, the source holds several entries; their conditions need not be identical. Equal values may be shown once. Entries after “also recorded” stand apart in the source; their conditions may differ.

What was measured:
[1] = system: phosphorylation of AKT, cardiomyocytes; test: Phosphorylated AKT in doxorubicin-treated cardiomyocytes; assay type: cell-based, rat; conditions: FIG. 2
From the text: (§1) The examples described herein valuated the effect of TDFRP's on the physiology of cardiomyocytes in vitro. Phosphorylation of cellular AKT at Ser473 is known to promote cardiomyocyte survival, function, and contractility. Cellular enzyme Caspase-3 is responsible for apoptosis via both apoptosis pathways. Chemotherapeutic agent doxorubicin […] used to treat a diverse number of cancers, but one significant side effect is decreased heart function. In cardiomyocytes, doxorubicin hinders the phosphorylation of AKT and stimulates Caspase-3. Lipopolysaccharides (LPS) are endotoxins that promote inflammation and apoptosis in cardiomyocytes.
(§2) Neonatal rat cardiomyocytes (CM) were pre-treated with 0.33 μM doxorubicin for 24 h, followed by treatment with BMP-7 (143 nM) or THR-123 (SEQ ID NO: 1) at 100 and 500 μM for 60 h.

[2] = system: Caspase-3, cardiomyocytes; test: Doxorubicin-induced Caspase-3 activity in cardiomyocytes; assay type: cell-based, rat; conditions: for caspase-3 activity (effect of doxorubicin itself): 333 μM (legend) / 0.33 μM (example) doxorubicin, cardiomyocytes, FIG. 3; for doxorubicin induced Caspase-3 activity: doxorubicin 0.33 μM 24 h (FIG. 3 legend: 333 μM), then BMP-7 143 nM or THR-123 100 and 500 μM for 60 h, p<0.05
Description: as §2
Neonatal rat cardiomyocytes (CM) were pre-treated with 0.33 μM doxorubicin for 24 h, followed by treatment with BMP-7 (143 nM) or SEQ ID No. 1 at 100 and 500 μM for 60 h. […] Caspase-3 activation is a step common to both apoptotic pathways and leads to apoptosis.

[3] = system: Akt phosphorylation at Serine 473, neonatal rat cardiomyocytes; test: Akt phosphorylation (Ser473) in cardiomyocytes starved by serum withdrawal (ischemic injury); assay type: cell-based; conditions: serum/growth supplement withdrawal; THR-123 100 μM, 60 h; p<0.01; FIG. 1
From the text: Phosphorylated Akt is a marker of apoptosis. Ischemic injury leads to apoptosis.
as §1
Primary neonatal rat cardiomyocytes (Cell Applications) were cultured in medium with 10% growth supplement (Cell Applications) for 24 hours at 37 °C, 5% CO2. Cells were then starved of growth supplement for 12 hours to create ischemic injury. Controls received medium alone. Cells were incubated with culture medium alone, BMP-7 (143 nM) or SEQ ID No. 1 (100 μM) for 60 h. In FIG. 1, Akt phosphorylation at Serine 473 (Cell Signaling Technology) is depressed due to media starvation and was not affected by the addition of PBS.

[4] = system: Caspase-3, cardiomyocytes; test: LPS-induced Caspase-3 in cardiomyocytes; assay type: cell-based, human; conditions: 100 ng/ml LPS; BMP-7 143 nM; THR-123 4, 20, 100, 500 μM (legend: 20 μM or higher); FIG. 4
IL-6, cardiomyocytes = test: LPS-induced IL-6 release in cardiomyocytes; assay type: cell-based, human; conditions: 100 ng/ml LPS; BMP-7 143 nM; THR-123 4, 20, 100, 500 μM; FIG. 5
[5] = system: myocardial ischemia in the rat after ligation of the left anterior descending artery; test: Rat LAD ligation model: histomorphometric necrotic volume / volume at risk (ischemia/reperfusion injury); assay type: in vivo; conditions: i.v. 2 hr prior and 24, 72, 120 hr post ligation, 20 min ischemia, 7 days reperfusion, BMP-7 160 μg/kg (p=0.08), THR-123 10 mg/kg (p=0.007), FIG. 8
Description: For each slice of a heart, the area of the necrotic area and the area of the whole area at risk (not stained blue) are measured. The areas are summed over all slices to obtain an estimate of the necrotic volume (NV) and the volume at risk (VR). The ratio of NV/VR is a measure of the myocardial injury resulting from the period of ischemia and subsequent reperfusion injury.
The efficacy of BMP mimetic THR-123 in ameliorating the effects of myocardial ischemia was investigated in the rat after ligation of the coronary artery. The rat LAD model is used for studying the effect of treatments for ameliorating the effect of a heart attack (coronary infarct). The Left Anterior Descending artery (LAD) supplies blood to the left ventricle. Blocking blood flow through the LAD creates ischemia in a region of the left ventricle muscle (region at risk). […]
Twenty-four unmanipulated rats, sorted into three large groups by initial body weight (>300 g pre-surgery) were evaluated. […]
The effect of the LAD ligation was measured via histomorphometric analysis of heart slices where the necrotic areas (yellow) and the areas impacted by the LAD ligation (area at risk, i.e., not stained blue) were measured for each slice and summed over all slices to obtain a measure of the infarct volume and the volume at risk (FIG. 7). […]

[6] = system: paracardial inflammation in rat hearts after LAD ligation; test: Paracardial inflammation / pericarditis inflammation level in rat LAD ligation model; assay type: in vivo; conditions: i.v.; BMP-7 160 μg/kg; THR-123 10 mg/kg; day 7 post ligation; FIG. 9
Description: Myocardial ischemia was created by ligating the left anterior descending artery (LAD), which supplies blood to the left ventricle of the heart. In the LAD infarct model the chest and the pericardium are opened to expose the LAD. A suture is placed around the LAD and loops are added to the two ends, then the suture is tightened with an over hand knot (ligation). The ligation blockage to the LAD was maintained for 20 min to simulate a coronary infarct, then released using the two loops.
The animals were divided into three groups that were dosed with PBS, BMP-7, or THR-123 (SEQ ID NO: 1). Administrations were at 2 hr prior to ligation and at 24, 72 and 120 hr post ligation.
Twenty-four unmanipulated rats, sorted into three large groups by initial body weight (>300 g pre-surgery) were evaluated. Animals underwent surgery and were sorted into 3 treatment groups: Group 1: Vehicle (neg. control), PBS, equal volume i.v; Group 2: BMP-7, 160 μg/kg i.v.<5 ml/kg; Group 3: THR-123 (SEQ ID NO: 1), 10 mg/kg i.v.<5 ml/kg. The LAD was ligated to create a 20 min period of ischemia, then released for seven days during which reperfusion injury occurs (IR injury).
The predominance of the hearts from the PBS treated group had more severe inflammation than hearts from the BMP-7 treated and the THR-123 (SEQ ID NO: 1) treated groups (FIG. 9).

Molecule | phosphorylation of AKT (effect of doxorubicin itself) ([1]; 333 nM doxorubicin, serum starved cardiomyocytes) | caspase-3 activity (effect of doxorubicin itself) [2] | caspase-3 activity (effect of doxorubicin itself) ([2]; listed as Doxorubicin) | Akt Ser473 phosphorylation [3] | Akt phosphorylation compared to doxorubicin alone ([1]; 0.33 μM (333 nM) doxorubicin 24 h, then THR-123 at 100 and 500 μM for 60 h, p<0.01) | doxorubicin induced Caspase-3 activity [2] | LPS induced Caspase-3 [4] | LPS induced IL-6 (IL-6, cardiomyocytes) | reduction in myocardial injury / IR damage relative to PBS (necrotic volume / volume at risk) ([5]; 10 mg/kg) | paracardial inflammation relative to PBS [6] | reduction in myocardial injury / IR damage relative to PBS (necrotic volume / volume at risk) [5]
COc1cccc2c1C(=O)c1c(O)c3c(c(O)c1C2=O)C[C@@](O)(C(=O)CO)C[C@@H]3O[C@H]1C[C@H](N)[C@H](O)[C@H](C)O1 [doxorubicin, reference compound] | further reduces phosphorylation of AKT | stimulated caspase-3 activity | Stimulated Caspase-3 |  |  |  |  |  |  |  | 
THR-123: TDFRP peptide, BMP mimetic: (H) CYFDDSSNVLCKKYRS (OH) |  |  |  | significantly increased Akt Ser473 phosphorylation; also recorded: reversed the effects of ischemia on AKT phosphorylation | significantly increased cellular Akt phosphorylation; also recorded: reversed the inhibition of AKT phosphorylation in a dose dependent manner | inhibited doxorubicin induced Caspase-3 activity in a dose dependent manner; also recorded: significantly inhibited doxorubicin induced Caspase-3 activity; also recorded: completely reversed the apoptotic effects of doxorubicin | reduced the level of LPS induced Caspase-3 in a concentration dependent manner; also recorded: reversed caspase-3 activity to an even greater extent | reduces the level of LPS induced IL-6 in a concentration dependent manner; also recorded: reduced the level of IL-6 release as did THR-123 in a dose dependent manner | 85% and 84% | reduced paracardial inflammation relative to PBS | 
BMP-7: bone morphogenetic proteins (BMPs) (protein, UniProt P18075 293-431, looked up) Bone morphogenetic protein 7: STGSKQRSQNRSKTPKNQEALRMANVAENSSSDQRQACKKHELYVSFRDLGWQDWIIAPEGYAAYYCEGECAFPLNSYMNATNHAIVQTLVHFINPETVPKPCCAPTQLNAISVLYFDDSSNVILKKYRNMVVRACGCH |  |  |  |  |  | significantly inhibited doxorubicin induced Caspase-3 activity; also recorded: completely reversed the apoptotic effects of doxorubicin | reduced the level of LPS induced Caspase-3 in a concentration dependent manner; also recorded: somewhat reversed the effect of LPS | reduces the level of LPS induced IL-6 in a concentration dependent manner; also recorded: reduced the level of IL-6 release |  | reduced paracardial inflammation relative to PBS | 51%
